Assay in all cases: MTT assay, curcumin concentration killing 50% of cells
What all share (assay type): cell-based
In general terms: Tetrazolium assays rely on reduction of a dye to a coloured formazan, in cell work by metabolically active cells.

Assay [1] relates to A549. The note with it: A549, human lung carcinoma; mean±SD (n=6); read-out: curcumin concentration required for killing 50% of the cells. The protocol:
(§1) In this experiment, whether the liposome has the capability of carrying drugs is observed by MTT assay. First, curcumin was added into cells at different concentrations, to obtain the curcumin concentration required for killing 50% of the cells. Next, the liposome with curcumin at different concentrations (curcumin-liposome) was sent into cells of the same type respectively, to obtain the curcumin concentration required for killing 50% of the cells. In Table 1, all the concentrations are expressed as mean±standard deviation (SD) (n=6).

Assay [2] concerns HT-29. Particulars: HT-29, human colorectal adenocarcinoma; mean±SD (n=6); read-out: curcumin concentration required for killing 50% of the cells. On the procedure:
as §1

Assay [3] relates to CT-26. Particulars: CT26; CT-26, mouse colorectal adenocarcinoma; mean±SD (n=6); read-out: curcumin concentration required for killing 50% of the cells. On the procedure:
as §1

The test system of assay [4] is B16/F10. Particulars: B16/F10, mouse melanoma; mean±SD (n=6); read-out: curcumin concentration required for killing 50% of the cells. On the procedure: as §1
Assay [5] relates to HepG2. The note with it: HepG2, human hepatocellular carcinoma; mean±SD (n=6); read-out: curcumin concentration required for killing 50% of the cells. On the procedure:
as §1

The test system of assay [6] is LL-2. The note with it: LL-2, mouse lung carcinoma; mean±SD (n=6); read-out: curcumin concentration required for killing 50% of the cells. On the procedure: as §1
In assay [7] the test system is HeLa. Particulars: human cervical cancer, mean±SD (n=6), read-out: curcumin concentration required for killing 50% of the cells. The protocol: as §1
In assay [8] the test system is JC. The note with it: mouse breast adenocarcinoma, mean±SD (n=6), read-out: curcumin concentration required for killing 50% of the cells. The protocol: as §1

Take `COc1cc(/C=C/C(=O)CC(=O)/C=C/c2ccc(O)c(OC)c2)ccc1O` [Curcumin, curcumin]: the IC50 was found to be 30 ± 9.45 µM in assay [1]; 12.9 ± 1.18 µM in assay [2]; 7.92 ± 0.77 µM in assay [3]; 8.16 ± 1.01 µM in assay [4]; 12.2 ± 1.11 µM in assay [5]; 10.8 ± 2.33 µM in assay [6]. The IC50 in assay [7] was 17.7 ± 6.95 µM; in assay [8], 11 ± 1.47 µM.

Values taken from US8871251B2, “Liposome and method for producing the same” (Can Heal BioMediTech Corp., priority 2008, dated 2014).
